Here are results for four compounds from article PMC4752739, “Functional structure and antimicrobial activity of persulcatusin, an antimicrobial peptide from the hard tick Ixodes persulcatus” (Parasites & Vectors, 2016).

Where a SMILES comes first, the peptide text is derived from it. Bridges are numbered along the chain shown (N, C = ends).

In series [1] the test system is methicillin-susceptible S. aureus (MSSA) clinical strains. In words: Growth inhibition test (MIC), MSSA. In kind it is cell-based, Staphylococcus aureus. The following applies: all 9 clinical isolates of MSSA. How it is done:
(§1) In the growth inhibition test, we used 9 clinical strains of methicillin-susceptible S. aureus (MSSA) and 9 clinical strains of MRSA from patients in Jichi Medical University Hospital, using these strains in past report. The bacteria were grown in Trypto Soya (TS; Nissui, Tokyo, Japan) broth for 18–19 h at 37 °C.
(§2) The optical density at 660 nm (OD660) of pre-cultured bacteria was measured using an Ubest-35 (JASCO Corporation, Tokyo, Japan). The adjustment for an OD660 of 0.5 was conducted by adding TS broth. The bacteria were diluted to a final concentration of 1–5 × 10^4 colony forming units (CFUs) /mL with TS broth, after which 50 μL of bacterial suspension and 50 μL of peptide solution were mixed together in a 96-well plate. The peptide solution was prepared by two-fold dilution in TS broth, while the IP solution was prepared to final peptide concentrations of 40, 20, 10, 5, 2.5, 1.25, 0.625, 0.313, 0.157, and 0.079 μg/mL. Each mixture of bacteria and peptide solution was incubated at 37 °C. The OD660 of the cell suspension was measured after 20–24 h incubation by using a Synergy™ HT (BioTek, Winooski, VT, USA). A control was prepared by mixing 50 μL of bacterial suspension, 40 μL of TS broth, and 10 μL of HBSS. The minimal inhibitory concentration (MIC) of the peptides was defined as the lowest concentration of peptide that reduced growth by >90 %.

Another series concerns MRSA clinical strains. The series is described as follows: Growth inhibition test (MIC), MRSA. The following applies: all 9 clinical isolates of MRSA. In kind it is cell-based, Staphylococcus aureus. How it is done:
as §1, §2

The next series deals with MSSA. In words: Short-time killing assay, MSSA. It counts as cell-based, Staphylococcus aureus. The following applies: 1 h at 37 °C; for Susceptibility in short-time killing assay: colony count, % of control, triplicate. The procedure:
(§3) We selected 3 strains each of MSSA and MRSA used in the growth inhibition test. Unlike the growth inhibition test described above, an additional growth inhibition test was conducted using small test tubes. Each mixture of bacteria and peptide solution was incubated for 1 h at 37 °C. After the incubation, 100 μL aliquots were removed from the tubes and inoculated on TS agar plates. The plates were incubated overnight at 37 °C, after which colonies were counted. The same control was prepared as in the growth inhibition test described above. The data were then converted and expressed as a percentage (sample per control).

For series [2], the system named is MRSA. In words: Short-time killing assay, MRSA. The following applies: 1 h at 37 °C. In kind it is cell-based, Staphylococcus aureus. How it is done: as §3
For series [3], the system named is bovine fetal fibroblasts (BFFs-NCC1). The series is described as follows: Effect on mammalian cell growth, fibroblasts. The following applies: 50 μg/mL, 24 h or 48 h, trypan blue staining, automatic cell counter; triplicate. It counts as cell-based. How it is done:
(§4) In this study, we used bovine fetal fibroblasts (BFFs-NCC1) and bovine fetal colon epithelial cells (BFCEs-K4DT), which were maintained in the Laboratory of Animal Breeding and Genetics, Tohoku University Graduate School of Agricultural Science. The BFFs-NCC1 and BFCEs-K4DT were cultured in a cell culture dish and wrapped 12-well plates. The nutrient medium of each cell was Dulbecco’s modified Eagle’s medium (DMEM; Nacalai Tesque, Kyoto, Japan or Mediatech, Inc, Manassas, VA, USA) containing 10 % fetal bovine serum (Invitrogen, Carlsbad, CA, USA) and a 1 % antibiotic-antimycotic mixed stock solution (Nacalai Tesque). Then each cell was seeded into 12-well plates at 1 × 10^4 cell/well and 1 × 10^5 cell/well. After overnight incubation, the nutrient mediums were changed to DMEM with IP (0, 5, 10, 50 μg/mL), and cells were incubated for 24 h or 48 h (BFCEs-K4DT only 48 h) at 37 °C. Then, these were collected and measured using a trypan blue staining method, with an EVE™ Automatic cell counter (NanoEnTeK, Seoul, Korea). For BFCEs-K4DT, the morphology of untreated control (IP 0 μg/mL) and treated cell (IP 50 μg/mL) was observed.

In series [4] the test system is bovine fetal colon epithelial cells (BFCEs-K4DT). In words: Effect on mammalian cell growth and morphology, colon epithelial cells. It counts as cell-based. The following applies: 50 μg/mL, 48 h. The procedure:
as §4

The next series deals with BFFs-NCC1. The series is described as follows: Neutral comet assay, fibroblasts. It counts as cell-based, bovine. Conditions: neutral conditions. How it is done:
(§5) We prepared BFFs-NCC1 and BFCEs-K4DT treated or untreated with IP 50 μg/mL for 48 h as above experiment. These cells were harvested by centrifugation (800 g, 3 min) and washed with sterile Dulbecco’s Phosphate Buffered Saline (DPBS; GIBCO). To generate positive control for comet tails, a part of each cell is untreated with IP treated 25 μM KMnO4, and all samples placed for 20 min at 4 °C. The comet assay was performed under neutral conditions following the Trevigen protocol. Each cell at 1 × 10^5 cell/mL was combined with molten low-melting agarose at a ratio of 1 : 10 (vol /vol) and immediately pipetted 50 μL onto Comet slides. Slides were stored in the dark for 30 min at 4 °C before immersing in lysis solution overnight. The slides were immersed in freshly prepared neutral electrophoresis buffer (dissolved Tris base and sodium acetate in distilled water, pH 9.0) for 30 min at 4 °C. Gel electrophoresis was performed at 1 volt per cm (measured electrode to electrode) for 45 min in neutral electrophoresis buffer. The comet slides were immersed in DNA precipitation solution (7.5 M ammonium acetate containing 95 % ethanol) for 30 min at room temperature and then in 70 % ethanol for 30 min at room temperature. […] The slides were observed by fluorescence microscopy FSX100 (Olympus, Tokyo, Japan).

For a further series, the system named is BFCEs-K4DT. The series is described as follows: Neutral comet assay, colon epithelial cells. In kind it is cell-based, bovine. Conditions: neutral conditions. The procedure:
as §5

Series [5] deals with MRSA. Conditions: cited from earlier work. The text has this:
Host cytotoxicity of AMPs is a major limitation in their application as antimicrobial drugs. […] Not only that, but DNA damage was not detected in each cell treated with IP in neutral comet assay (Fig. 6). […] Moreover, in the hemolytic assay, we observed minimal hem ... || Treating MRSA infection is challenging owing to the remarkable ability of S. aureus to develop resistance to multiple antibiotics, thus limiting the number of viable therapeutic options. New anti-MRSA drugs called DAP were developed recently, but DAP-resistant bacteria have already been reported. Therefore, there is an urgent need to develop novel antimicrobials with unique mechanisms of action to combat MRSA, one of which is AMP [4]. It has been reported that tick AMP derived from Ornithodoros moubata, with an amino acid sequence similar to that of OMBAC (91 %) (Table 2) ...

For series [6] the following is noted: cited from earlier work. An excerpt: Host cytotoxicity of AMPs is a major limitation in their application as antimicrobial drugs. […] Not only that, but DNA damage was not detected in each cell treated with IP in neutral comet assay (Fig. 6). […] Moreover, in the hemolytic assay, we observed minimal hem ...
Where [7] appears, read: positive control, 25 μM, 20 min at 4 °C.

On to `CC[C@H](C)[C@@H]1NC(=O)[C@H](CO)NC(=O)[C@H](CCCNC(=N)N)NC(=O)[C@@H]2CSSC[C@@H](C(=O)N[C@@H](Cc3ccc(O)cc3)C(=O)N[C@@H](CO)C(=O)N[C@@H](CCCNC(=N)N)C(=O)O)NC(=O)[C@H]([C@@H](C)O)NC(=O)[C@@H]3CSSC[C@H](NC(=O)[C@H](C)NC(=O)CNC(=O)[C@H](CCC(N)=O)NC(=O)[C@H](CC(N)=O)NC(=O)[C@H](Cc4ccccc4)NC(=O)[C@@H]4CCCN4C(=O)[C@@H](NC(=O)CNC(=O)[C@H](Cc4ccccc4)NC(=O)CN)CSSC[C@H](NC(=O)[C@H](Cc4ccc(O)cc4)NC(=O)CNC(=O)CNC(=O)[C@H](CCCNC(=N)N)NC(=O)[C@H](CCCNC(=N)N)NC(=O)CNC1=O)C(=O)N[C@@H](C)C(=O)NCC(=O)N[C@@H](CC(C)C)C(=O)N[C@@H](Cc1ccccc1)C(=O)N[C@@H](CCCCN)C(=O)N[C@@H](CCC(N)=O)C(=O)N[C@@H]([C@@H](C)O)C(=O)N3)C(=O)N[C@@H](Cc1c[nH]cn1)C(=O)N[C@@H](CCCNC(=N)N)C(=O)N[C@@H](Cc1c[nH]cn1)C(=O)N2` [IP, persulcatusin] (H-GFGCPFNQGACHRHCRSIGRRGGYCAGLFKQTCTCYSR-OH; disulfide 4-25, 11-33, 15-35 (inferred); N-terminus and C-terminus assumed), for which the MIC (commonly the least concentration at which growth counts as inhibited) at which growth of all 9 clinical isolates was inhibited in series [1] came out at 1.25 µg/mL; with MRSA clinical strains, 2.5 µg/mL. Moreover, the “Bactericidal activity within 1 h” value in the series with MSSA (MSSA) and in the series on MRSA [2] (MRSA) was “dose-dependent bactericidal activity” in each case. The “Susceptibility in short-time killing assay” value is on record as “susceptible” in the series on MSSA (strain MS-3); “relatively resistant” with MSSA (strains MS-1 and MS-2); “susceptible” in the series on MRSA [2] (all MRSA strains (MR-1, 2, 3), colony count, % of control, triplicate). Moreover, the “Number of cells after treatment” value is “no significant differences” in series [3] and “no significant differences” in [4] (trypan blue staining, automatic cell counter, triplicate). Also, the “Cell morphology after treatment” value in [4] is “no morphological change”. For the same compound, the “DNA damage (comet tails)” value in the series with BFFs-NCC1 (50 μg/mL for 48 h) and with BFCEs-K4DT (50 μg/mL for 48 h) was “no comet tails” each time.
Turning to `[K+].[O]=[Mn](=[O])(=[O])[O-]` [KMnO4, reference compound], the “DNA damage (comet tails)” value in the series with BFFs-NCC1 (setting [7]) and in the series with BFCEs-K4DT (setting [7]) was “some comet tails” throughout.
For the compound “GYGCPFNQYQCHSHCSGIRGYKGGYCKGTFKQTCKCY [(No use), 91 % similar to OMBAC]”, in the series with MRSA [5], the “MIC against MRSA” value was “low MIC”.
In the case of melittin, the “Antimicrobial activity against MRSA” value in the series on MRSA [5] was “antimicrobial activity against MRSA”. Further, in series [6], the Hemolytic activity entry was “hemolytic activity”.
